Holding throughout (test): relative viability (nuclei count vs DMSO), 5 days (fraction); higher = more cells survive
Compound in assay [1]: CC[C@@H](C)CNCC(=O)N1CCC2=C([C@@H]1COC3=CC=CC(=C3)C)C=CS2 [RU-SKI 43] + CCNC(=O)c1noc(-c2cc(C(C)C)c(O)cc2O)c1-c1ccc(CN2CCOCC2)cc1 [Luminespib] (partner 0.01 µM)
Summed up: (§1)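 Lung cancer cell lines were pin-tool dosed in 1536-well plates on the day after seeding, with either a lone drug or a fixed anchor-drug dose plus five library-drug doses (not always all listed) in √10 steps. Nuclei were counted on 4× images after 5 days. Relative viability is the ratio of treated-well to vehicle-well nuclei counts, with each value a median of duplicate plates.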

Compound in assay [2]: CCc1c2c(nc3ccc(OC(=O)N4CCC(N5CCCCC5)CC4)cc13)-c1cc3c(c(=O)n1C2)COC(=O)[C@]3(O)CC [Irinotecan] + O=C(CCCCCCC(=O)Nc1ccccc1)NO [Vorinostat] (partner 1 µM)
Summed up:
as §1

Compound in assay [3]: Cn1cc(-c2cnc3ccc4ccc(CS(=O)(=O)NCc5ccccn5)cc4c(=O)c3c2)cn1 [MK-8033] + CS(=O)(=O)N1CCN(Cc2cc3nc(-c4cccc5[nH]ncc45)nc(N4CCOCC4)c3s2)CC1 [Pictilisib] (partner 1 µM)
In a few lines:
as §1

Compound in assay [4]: Cn1cc(-c2cnc3ccc4ccc(CS(=O)(=O)NCc5ccccn5)cc4c(=O)c3c2)cn1 [MK-8033] + O=C(CCCCCCC(=O)Nc1ccccc1)NO [Vorinostat] (partner 1 µM)
Summed up:
as §1

This note sets out measurements from the supplement of paper PMC10307832.

NCI-H3122: the relative viability in assay [1] (first compound 0.1 µM) stood at 0.0907; in assay [1] (first compound 0.3162 µM), 0.0845; in assay [1] (first compound 1 µM), 0.103; in assay [1] (first compound 3.162 µM) it was 0.0966; in assay [1] (first compound 10 µM), 0.0897; in assay [2] (first compound 0.6325 µM), 0.924. Also, the relative viability in assay [2] (first compound 2 µM) worked out at 0.447; in assay [2] (first compound 6.325 µM), 0.199; in assay [2] (first compound 20 µM), 0.146; in assay [3] (first compound 0.02 µM) it was 0.676; in assay [3] (first compound 0.06325 µM) it was 0.563; in assay [3] (first compound 0.2 µM), 0.602. Further, the relative viability in assay [3] (first compound 0.6325 µM) is 0.66; in assay [3] (first compound 2 µM), 0.628; in assay [4] (first compound 0.02 µM) it was 0.834; in assay [4] (first compound 0.06325 µM), 1.3; in assay [4] (first compound 0.2 µM), 0.879; in assay [4] (first compound 0.6325 µM), 1.14. Further, in assay [4] (first compound 2 µM), the relative viability stood at 1.01.
For PC-3 [JPC-3], the relative viability in assay [1] (first compound 0.1 µM) was 0.738; in assay [1] (first compound 0.3162 µM), 0.633; in assay [1] (first compound 1 µM), 0.795; in assay [1] (first compound 3.162 µM), 0.615; in assay [1] (first compound 10 µM), 0.537; in assay [2] (first compound 0.6325 µM), 0.625. For the same cell line, the relative viability in assay [2] (first compound 2 µM) came to 0.914; in assay [2] (first compound 6.325 µM), 0.411; in assay [2] (first compound 20 µM), 0.419; in assay [3] (first compound 0.02 µM), 0.666; in assay [3] (first compound 0.2 µM), 0.655; in assay [3] (first compound 0.6325 µM) it was 0.56. The relative viability in assay [3] (first compound 2 µM) came to 0.762; in assay [4] (first compound 0.02 µM), 0.886; in assay [4] (first compound 0.2 µM) it was 0.77; in assay [4] (first compound 0.6325 µM), 0.924; in assay [4] (first compound 2 µM), 0.817.
For the cell line PC-14, the relative viability came to 0.146 in assay [1] (first compound 0.1 µM); 0.143 in assay [1] (first compound 0.3162 µM); 0.126 in assay [1] (first compound 1 µM); 0.157 in assay [1] (first compound 3.162 µM); 0.159 in assay [1] (first compound 10 µM); 0.477 in assay [2] (first compound 0.6325 µM). Also, the relative viability was 0.392 in assay [2] (first compound 2 µM); 0.217 in assay [2] (first compound 6.325 µM); 0.102 in assay [2] (first compound 20 µM); 0.652 in assay [3] (first compound 0.02 µM); 0.514 in assay [3] (first compound 0.06325 µM); 0.738 in assay [3] (first compound 0.2 µM). In addition, the relative viability in assay [3] (first compound 0.6325 µM) is 0.545; in assay [3] (first compound 2 µM), 0.623; in assay [4] (first compound 0.02 µM), 0.708; in assay [4] (first compound 0.06325 µM) it was 0.52; in assay [4] (first compound 0.2 µM), 0.683; in assay [4] (first compound 0.6325 µM), 0.797. Also, the relative viability in assay [4] (first compound 2 µM) came to 0.599.
Consider RERF-LC-KJ, for which the relative viability in assay [1] (first compound 0.1 µM) stood at 1.25; in assay [1] (first compound 0.3162 µM), 1.01; in assay [1] (first compound 1 µM) it was 1.44; in assay [1] (first compound 3.162 µM), 1.3; in assay [1] (first compound 10 µM), 1; in assay [2] (first compound 0.6325 µM), 0.462. Further, the relative viability in assay [2] (first compound 2 µM) turned out to be 0.586; in assay [2] (first compound 6.325 µM), 0.48; in assay [2] (first compound 20 µM), 0.271; in assay [3] (first compound 0.02 µM) it was 0.508; in assay [3] (first compound 0.06325 µM) it was 0.417; in assay [3] (first compound 0.2 µM) it was 0.519. The relative viability in assay [3] (first compound 0.6325 µM) is 0.501; in assay [3] (first compound 2 µM), 0.533; in assay [4] (first compound 0.02 µM), 0.726; in assay [4] (first compound 0.06325 µM), 0.599; in assay [4] (first compound 0.2 µM) it was 0.664; in assay [4] (first compound 0.6325 µM), 0.707. Moreover, the relative viability in assay [4] (first compound 2 µM) stood at 0.597.
As to SK-LU-1, the relative viability was determined as 0.225 in assay [1] (first compound 0.1 µM); 0.215 in assay [1] (first compound 0.3162 µM); 0.202 in assay [1] (first compound 1 µM); 0.227 in assay [1] (first compound 3.162 µM); 0.215 in assay [1] (first compound 10 µM); 0.435 in assay [2] (first compound 0.6325 µM). The relative viability in assay [2] (first compound 2 µM) turned out to be 0.431; in assay [2] (first compound 6.325 µM), 0.45; in assay [2] (first compound 20 µM), 0.313; in assay [3] (first compound 0.02 µM), 0.658; in assay [3] (first compound 0.06325 µM), 0.499; in assay [3] (first compound 0.2 µM) it was 0.449. The relative viability in assay [3] (first compound 0.6325 µM) stood at 0.54; in assay [3] (first compound 2 µM) it was 0.622; in assay [4] (first compound 0.02 µM), 0.829; in assay [4] (first compound 0.06325 µM) it was 0.897; in assay [4] (first compound 0.2 µM), 0.704; in assay [4] (first compound 0.6325 µM), 0.778. Further, the relative viability in assay [4] (first compound 2 µM) was found to be 0.685.
As for SK-MES-1, the relative viability in assay [1] (first compound 0.1 µM) is 0.761; in assay [1] (first compound 0.3162 µM) it was 0.854; in assay [1] (first compound 1 µM) it was 0.818; in assay [1] (first compound 3.162 µM), 0.929; in assay [1] (first compound 10 µM) it was 0.75; in assay [2] (first compound 0.6325 µM) it was 0.821. Moreover, the relative viability was determined as 0.756 in assay [2] (first compound 2 µM); 0.372 in assay [2] (first compound 6.325 µM); 0.193 in assay [2] (first compound 20 µM); 0.334 in assay [3] (first compound 0.02 µM); 0.301 in assay [3] (first compound 0.06325 µM); 0.328 in assay [3] (first compound 0.2 µM). The relative viability in assay [3] (first compound 0.6325 µM) stood at 0.405; in assay [3] (first compound 2 µM) it was 0.349; in assay [4] (first compound 0.02 µM) it was 1.2; in assay [4] (first compound 0.06325 µM), 0.987; in assay [4] (first compound 0.2 µM), 1.03; in assay [4] (first compound 0.6325 µM), 1.04. In addition, in assay [4] (first compound 2 µM), the relative viability is 1.03.
For SW 1573, the relative viability was 0.223 in assay [1] (first compound 0.1 µM); 0.203 in assay [1] (first compound 0.3162 µM); 0.246 in assay [1] (first compound 1 µM); 0.154 in assay [1] (first compound 3.162 µM); 0.308 in assay [1] (first compound 10 µM); 0.605 in assay [2] (first compound 2 µM). Also, the relative viability in assay [2] (first compound 6.325 µM) was 0.209; in assay [2] (first compound 20 µM), 0.0706; in assay [3] (first compound 0.02 µM) it was 0.55; in assay [3] (first compound 0.06325 µM), 0.414; in assay [3] (first compound 0.2 µM) it was 0.462; in assay [3] (first compound 0.6325 µM), 0.463. For the same cell line, the relative viability in assay [3] (first compound 2 µM) stood at 0.42; in assay [4] (first compound 0.02 µM), 0.836; in assay [4] (first compound 0.06325 µM) it was 0.681; in assay [4] (first compound 0.2 µM), 0.7; in assay [4] (first compound 0.6325 µM), 0.729; in assay [4] (first compound 2 µM), 0.667.
